Experimental data from patent publication US6410558B1, “Fungicides for the control of take-all disease of plants” (Monsanto Technology LLC, priority 1991, dated 2002).

Tested on: Gaeumannomyces graminis var. tritici (Ggt)
Experiment: In vitro Assay: mycelial growth of Ggt on minimal media agar plates containing test compound
Type: cell-based
Details: dark, 19-20° C., 4 to 5 days, diameter of mycelial growth; for In vitro (ppm) 0.1, Percent Inhibition / inhibition at 0.1 ppm: 0.1 ppm in minimal media agar; for In vitro (ppm) 1, Percent Inhibition / inhibition at 1 ppm: 1 ppm in minimal media agar; for In vitro (ppm) 10, Percent Inhibition / inhibition at 10 ppm: 10 ppm in minimal media agar; for inhibition at 0.1 ppm / inhibition at 1 ppm / inhibition at 10 ppm: Gaeumannomyces graminis; for inhibition at 0.1 ppm: read-out: In vitro (ppm) 0.1, Percent Inhibition; for inhibition at 1 ppm: read-out: In vitro (ppm) 1, Percent Inhibition; for inhibition at 10 ppm: read-out: In vitro (ppm) 10, Percent Inhibition
Procedure: The test compounds (0.25 mL of an appropriate stock solution in acetone) are incorporated into 25 mL minimal media agar [(prepared by autoclaving a solution of 17.5 g Czapek Dox broth (Difco), 7.5 g purified agar or Bacto-agar (Difco), and 500 mL distilled/deionized water, and then adding 50 μL of 1 mg/mL thiamine hydrochloride and 50 μL of 1 mg/mL biotin in 5% ethanol] and plates are prepared.
Each plate is inoculated by placing in a triangular shape three 4-mm plugs of Gaeumannomyces graminis var. tritici (Ggt) grown on the minimal media agar described above. The plates are incubated in the dark at 19-20° C. for 4 to 5 days. The growth of the fungus is measured as the diameter of the mycelial growth. The result is expressed as Percent Inhibition, calculated as [1-[(mm growth on treated plate −4)/(mm growth on control plate −4)]]×100.

Compound | In vitro (ppm) 0.1, Percent Inhibition | In vitro (ppm) 1, Percent Inhibition | In vitro (ppm) 10, Percent Inhibition [%] | inhibition at 0.1 ppm [%] | inhibition at 1 ppm [%] | inhibition at 10 ppm [%]
2-Chloro-N-ethyl-6-(9-phenylethenyl)benzamide [Example 116] | N (If the calculation resulted in “0” or less, as compared to the untreated control, a “N” is shown to indicate no control.) | N (If the calculation resulted in “0” or less, as compared to the untreated control, a “N” is shown to indicate no control.) | 33 |  |  | 
3-N,N-diethyl-2-(trimethylsilyl)benzamide [Example 15] | N (If the calculation resulted in “0” or less, as compared to the untreated control, a “N” is shown to indicate no control.) | N (If the calculation resulted in “0” or less, as compared to the untreated control, a “N” is shown to indicate no control.) | 44 |  |  | 
CCN(CC)C(=O)c1cccc(F)c1[Si](C)(C)C(C)(C)C [Example 9, 2-[(1,1-Dimethylethyl)dimethylsilyl]-N,N-diethyl-3-fluorobenzamide] |  |  |  | 3 | < 0 | 71
CCN(CC)C(=O)c1c(C)ccc(F)c1[Si](C)(C)C(C)(C)C [Example 10, 2-[(1,1-Dimethylethyl)dimethylsilyl]-N,N-diethyl-3-fluoro-6-methylbenzamide] |  |  |  | < 0 | < 0 | 50
Cc1ccc(F)c([Si](C)(C)C)c1C(=O)N(C)C(C)(C)C [Example 11, N-(1,1-Dimethylethyl)-3-fluoro-N,6-dimethyl-2-(trimethylsilyl)benzamide] |  |  |  | < 0 | < 0 | 24
CN(C(=O)c1c(Cl)cccc1[Si](C)(C)C)C(C)(C)C [Example 23, 2-Chloro-N-(1,1-dimethylethyl)-N-methyl-6-(trimethylsilyl)benzamide] |  |  |  | < 0 | < 0 | 71
CCN(C(=O)c1c(Cl)cccc1[Si](C)(C)C)c1ccccc1 [Example 24, 2-Chloro-N-ethyl-N-phenyl-6-(trimethylsilyl)benzamide] |  |  |  | < 0 | < 0 | 100
C[Si](C)(C)c1cccc(Cl)c1C(=O)NCCCCl [Example 30, 2-Chloro-N-(3-chloropropyl)-6-(trimethylsilyl)benzamide] |  |  |  | < 0 | 60 | 80
C[Si](C)(C)c1cccc(Cl)c1C(=O)NCc1ccccc1 [Example 31, 2-Chloro-N-(phenylmethyl)-6-(trimethylsilyl)benzamide] |  |  |  | < 0 | 4 | 96
CCN(CC)C(=O)c1c(I)ccc(F)c1[Si](C)(C)C [Example 40, N,N-Diethyl-3-fluoro-6-iodo-2-(trimethylsilyl)benzamide] |  |  |  | < 0 | < 0 | 53
CCN(CC)C(=O)c1c(C=O)ccc(F)c1[Si](C)(C)C [Example 41, N,N-Diethyl-3-fluoro-6-formyl-2-(trimethylsilyl)benzamide] |  |  |  | 24 | 21 | 52
CCN(CC)C(=O)c1c(C(=O)OC)ccc(F)c1[Si](C)(C)C [Example 42, 2-[(Diethylamino)carbonyl]-4-fluoro-3-(trimethylsilyl)benzoic acid, methyl ester] |  |  |  | < 0 | < 0 | 30
CCN(CC)C(=O)c1c(C(=O)OC(C)C)ccc(F)c1[Si](C)(C)C [Example 43, 2-[(Diethylamino)carbonyl]-4-fluoro-3-(trimethylsilyl)benzoic acid, 1-methylethyl ester] |  |  |  | < 0 | < 0 | 63
CCc1cccc([Si](C)(C)C)c1C(=O)N(CC)CC [Example 44, N,N,2-Triethyl-6-(trimethylsilyl)benzamide] |  |  |  | < 0 | < 0 | 39
CCN(COC)C(=O)c1c(Cl)cccc1[Si](C)(C)C [Example 46, 2-Chloro-N-ethyl-N-(methoxymethyl)-6-(trimethylsilyl)benzamide] |  |  |  | 15 | 11 | 44
CCN(C(C)=O)C(=O)c1c(Cl)cccc1[Si](C)(C)C [Example 47, N-Acetyl-2-chloro-N-ethyl-6-(trimethylsilyl)benzamide] |  |  |  | < 0 | < 0 | 70
CCN(COC)C(=O)c1ccccc1[Si](C)(C)C [Example 50, N-Ethyl-N-(methoxymethyl)-2-(trimethylsilyl)benzamide] |  |  |  | 3 | 10 | 20
CCN(CC)C(=O)c1ccc(C)c(F)c1[Si](C)(C)C [Example 57, N,N-Diethyl-3-fluoro-4-methyl-2-(trimethylsilyl)benzamide] |  |  |  | 10 | < 0 | 90
CCN(CC)C(=O)c1ccc(C)cc1[Si](C)(C)C [Example 58, N,N-Diethyl-4-methyl-2-(trimethylsilyl)benzamide] |  |  |  | 13 | 6 | 55
CCN(CC)C(=O)c1c(Cl)cc(C)cc1[Si](C)(C)C [Example 59, N,N-Diethyl-2-chloro-4-methyl-6-(trimethylsilyl)benzamide] |  |  |  | 6 | < 0 | 26
CCN(CC)C(=O)c1c(C)cc(C)cc1[Si](C)(C)C [Example 60, N,N-Diethyl-2,4-dimethyl-6-(trimethylsilyl)benzamide] |  |  |  | < 0 | < 0 | 19
CCN(CC)C(=O)c1cc(C)ccc1[Si](C)(C)C [Example 63, N,N-Diethyl-5-methyl-2-(trimethylsilyl)benzamide] |  |  |  | < 0 | 40 | 69
CCN(CC)C(=O)c1cccc(C)c1[Si](C)(C)C [Example 64, N,N-diethyl-3-methyl-2-(trimethylsilyl)benzamide] |  |  |  | 20 | 14 | 31
CCNC(=O)c1ccsc1[Si](C)(C)C [Example 70, N-Ethyl-2-(trimethylsilyl)-3-thiophenecarboxamide] |  |  |  | < 0 | 15 | 44
CCNC(=O)c1c(Cl)cccc1-c1ccccc1C [Example 72, 3-Chloro-N-ethyl-2′-methyl-[1,1′-biphenyl]-2-carboxamide] |  |  |  | < 0 | 59 | 69
CCNC(=O)c1c(Cl)cccc1-c1cccc2ccccc12 [Example 73, 2-Chloro-N-ethyl-6-(1-naphthalenyl)benzamide] |  |  |  | 13 | 60 | 83
CCN(CC)C(=S)c1ccc(C)c(F)c1[Si](C)(C)C [Example 75, N,N-Diethyl-3-fluoro-4-methyl-2-(trimethylsilyl)thiobenzamide] |  |  |  | 5 | 26 | 31
